Experimental data published in patent US5510355A, “Depolarizing skeletal muscle relaxants” (priority 1994, dated 1996).
Counter-ions that a name gives are not always drawn. Like-named read-outs stand apart in the source and are kept apart here.

How the values were obtained:
[1] = biological target: T1, muscle-like nicotinic receptors (human clonal line TE671/RD) (Homo sapiens, UniProt P02708+P07510+Q07001); experiment: cell-based; settings: for Emax: read-out: HUMAN MUSCLE Emax (maximal activation as percentage of that induced by acetylcholine); for potency relative to succinylcholine, in words: comparison of EC50 values with Sample No. C-2; for efficacy relative to succinylcholine, in words: comparison of Emax values with Sample No. C-2
T1 construct: these cells express muscle-like nicotinic receptors; endogenous in cells; host or cells: TE671/RD (human embryonal rhabdomyosarcoma line)
T1 sequence (P07510 23-517): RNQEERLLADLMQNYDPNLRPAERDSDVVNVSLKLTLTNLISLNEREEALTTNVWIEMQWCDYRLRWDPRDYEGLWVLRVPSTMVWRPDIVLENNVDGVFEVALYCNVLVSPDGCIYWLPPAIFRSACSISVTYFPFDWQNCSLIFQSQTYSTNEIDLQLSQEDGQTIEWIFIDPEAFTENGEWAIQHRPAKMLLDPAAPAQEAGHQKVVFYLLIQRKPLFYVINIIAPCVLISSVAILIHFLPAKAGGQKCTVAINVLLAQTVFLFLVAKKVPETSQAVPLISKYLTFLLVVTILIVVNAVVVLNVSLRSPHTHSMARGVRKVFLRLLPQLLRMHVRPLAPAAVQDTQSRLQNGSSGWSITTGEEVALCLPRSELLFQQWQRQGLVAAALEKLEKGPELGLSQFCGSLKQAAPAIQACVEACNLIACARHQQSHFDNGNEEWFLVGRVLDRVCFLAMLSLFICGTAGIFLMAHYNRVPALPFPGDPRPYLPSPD
T1 sequence (P02708 21-457): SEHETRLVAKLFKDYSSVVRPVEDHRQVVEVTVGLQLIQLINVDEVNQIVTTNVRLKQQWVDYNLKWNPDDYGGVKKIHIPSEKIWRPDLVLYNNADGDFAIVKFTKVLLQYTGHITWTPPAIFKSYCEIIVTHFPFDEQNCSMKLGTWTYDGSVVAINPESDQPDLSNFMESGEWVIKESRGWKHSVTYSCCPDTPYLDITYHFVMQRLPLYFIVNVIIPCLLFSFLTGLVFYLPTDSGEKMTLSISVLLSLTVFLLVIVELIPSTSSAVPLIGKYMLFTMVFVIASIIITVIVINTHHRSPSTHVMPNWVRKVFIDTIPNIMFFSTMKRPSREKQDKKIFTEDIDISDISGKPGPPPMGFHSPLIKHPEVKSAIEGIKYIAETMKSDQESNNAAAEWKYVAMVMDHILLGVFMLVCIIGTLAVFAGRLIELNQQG
T1 sequence (Q07001 22-517): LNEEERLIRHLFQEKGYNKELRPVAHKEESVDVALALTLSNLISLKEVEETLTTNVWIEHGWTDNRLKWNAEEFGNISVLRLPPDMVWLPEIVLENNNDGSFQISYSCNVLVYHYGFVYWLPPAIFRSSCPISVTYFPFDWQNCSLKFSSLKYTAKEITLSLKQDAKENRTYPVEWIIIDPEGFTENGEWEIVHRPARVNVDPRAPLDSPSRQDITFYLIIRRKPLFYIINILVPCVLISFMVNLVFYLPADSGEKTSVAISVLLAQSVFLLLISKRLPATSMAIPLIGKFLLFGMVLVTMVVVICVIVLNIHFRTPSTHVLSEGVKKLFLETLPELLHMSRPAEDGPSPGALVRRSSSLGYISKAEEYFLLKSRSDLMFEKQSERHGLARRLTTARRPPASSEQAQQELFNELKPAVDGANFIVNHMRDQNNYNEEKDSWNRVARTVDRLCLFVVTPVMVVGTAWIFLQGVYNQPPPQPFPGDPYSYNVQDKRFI
Procedure: (§1) The selectivity at muscle nicotinic receptors of the various analogs described in this invention was determined by their functional efficacies and potencies at muscle and ganglionic sites.
(§2) Intact cells on dishes were used for functional studies.
(§3) The medium was removed and ^86 Rb^+ was quantitated using Cerenkov detection. […] Specific ion efflux was determined as the difference in isotope efflux between total and non-specific efflux samples. Dose-response curves were plotted and the concentration resulting in half maximal activation of specific ion flux through nicotinic receptors determined for human muscle and rat ganglionic preparations (EC50).

[2] = system: ganglionic-type neuronal nicotinic receptors (rat pheochromocytoma clonal line PC12); format: cell-based
Procedure: as §1
Ganglionic effects were established on the rat pheochromocytoma clonal line PC12 which is a continuous clonal cell line of neural crest origin derived from a tumor of the rat adrenal medulla expressing ganglionic-type neuronal nicotinic receptors. […] Discussion concerning the heterogeneity of nicotinic receptors subtypes is set forth in Lukas et al., Internatl. […] See, Fornasari et al., Neurosci.
as §2, §3

[3] = human muscle, TE671/RD, 86Rb+ efflux, 4 minutes at 20° C., read-out: HUMAN MUSCLE EC50 (concentration resulting in half maximal activation of specific ion flux)
[4] = rat ganglia, PC12, 86Rb+ efflux, 4 minutes at 20° C.; read-out: RAT GANGLIA EC50 (concentration resulting in half maximal activation of specific ion flux)

CN1CCCC1c1cncc(Cl)c1.[O-][Cl+3]([O-])([O-])O (racemic) [Sample No. 6, (+/-)-5-chloronicotine perchlorate]
Emax ([1]; TE671/RD): 110%
EC50 [1, 3]: 30 µM
potency relative to succinylcholine, in words ([1]; human muscle): at least as potent as succinylcholine
efficacy relative to succinylcholine, in words ([1]; human muscle): more efficacious than succinylcholine
RAT GANGLIA Emax (maximal activation as percentage of that induced by acetylcholine) [2]: 0%

C[N+](C)(C)CCOC(=O)CCC(=O)OCC[N+](C)(C)C [Sample No. C-2, succinylcholine chloride, reference compound]
Emax ([1]; TE671/RD): 95%
EC50 [1, 3]: 30 µM
RAT GANGLIA Emax (maximal activation as percentage of that induced by acetylcholine) [2]: 0%

Fc1cncc(C2CCCN2)c1 (racemic) [Sample No. 5, (+/-)-5-fluoronornicotine]
Emax ([1]; TE671/RD): 160%
EC50 [1, 3]: 30 µM
potency relative to succinylcholine, in words ([1]; human muscle): at least as potent as succinylcholine
efficacy relative to succinylcholine, in words ([1]; human muscle): more efficacious than succinylcholine
RAT GANGLIA Emax (maximal activation as percentage of that induced by acetylcholine) [2]: < 10%

Fc1cncc(C2=NCCCC2)c1 [Sample No. 2, 5-fluoroanabaseine dipicrate]
Emax ([1]; TE671/RD): 220%
EC50 [1, 3]: 1 µM
potency relative to succinylcholine, in words ([1]; human muscle): very potent relative to succinylcholine
efficacy relative to succinylcholine, in words ([1]; human muscle): very efficacious relative to succinylcholine
RAT GANGLIA Emax (maximal activation as percentage of that induced by acetylcholine) [2]: 0%
ganglionic effects, in words ([2]; ganglionic-type receptors): no observed ganglionic effects

CC(=O)OCC[N+](C)(C)C [C-1, acetylcholine, reference compound]
RAT GANGLIA Emax (maximal activation as percentage of that induced by acetylcholine) [2]: 100%

O=C(O)/C=C/C(=O)O.O=C(O)/C=C/C(=O)O.c1cncc(C2CC3CCN2CC3)c1 (racemic) [Sample No. 1, (+/-)-2-(3-pyridyl)-quinuclidine difumarate]
Emax ([1]; TE671/RD): 130%
EC50 [1, 3]: 0.055 µM
potency relative to succinylcholine, in words ([1]; human muscle): more potent
efficacy relative to succinylcholine, in words ([1]; human muscle): more efficacious than succinylcholine
RAT GANGLIA Emax (maximal activation as percentage of that induced by acetylcholine) [2]: 100%
ganglionic effects, in words ([2]; ganglionic-type receptors): only at relatively high concentrations
EC50 [2, 4]: 2 µM

c1cncc(C2=NCCCC2)c1 [Sample No. 3, anabaseine dihydrochloride]
EC50 [1]: 2 µM
Emax ([1]; TE671/RD): 200%
potency relative to succinylcholine, in words ([1]; human muscle): more potent
efficacy relative to succinylcholine, in words ([1]; human muscle): more efficacious than succinylcholine
ganglionic effects, in words ([2]; ganglionic-type receptors): only at relatively high concentrations
RAT GANGLIA Emax (maximal activation as percentage of that induced by acetylcholine) ([2]; rat ganglia, PC12, % of acetylcholine maximum): 80%
EC50 ([2]; read-out: RAT GANGLIA EC50 (concentration resulting in half maximal activation of specific ion flux); rat ganglia, PC12, 86Rb+ efflux, 4 minutes at 20° C.): 50 µM

CC(=O)OCC1CC2CCN1CC2.[O-][Cl+3]([O-])([O-])O (racemic) [Sample No. 4, (+/-)-2-acetoxymethylquinuclidine perchlorate]
Emax ([1]; TE671/RD): 200%
EC50 [1, 3]: 3 µM
potency relative to succinylcholine, in words ([1]; human muscle): more potent
efficacy relative to succinylcholine, in words ([1]; human muscle): more efficacious than succinylcholine
RAT GANGLIA Emax (maximal activation as percentage of that induced by acetylcholine) [2]: 60%
ganglionic effects, in words ([2]; ganglionic-type receptors): only at relatively high concentrations
EC50 [2, 4]: 50 µM
